In patent US9133183B2, “Imidazolidinones and analogs exhibiting anti-cancer and anti-proliferative activities” (Deciphera Pharmaceuticals, LLC, priority 2013, dated 2015):

How the values were obtained:
[1] = target: unphosphorylated c-FMS kinase (uFMS, Seq. ID no. 1) (Homo sapiens (Human), UniProt P07333); assay: uFMS kinase assay (ADP production coupled to pyruvate kinase/lactate dehydrogenase); assay type: biochemical; conditions: enzymatic assay, ATP 500 μM; read-out: uFMS
In short: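 Unphosphorylated FMS (10 nM) with polyE4Y 1 mg/mL and 500 μM ATP in 90 mM Tris pH 7.5, 10 mM MgCl2, 0.2% octyl-glucoside, 1% DMSO. ADP formation was coupled via pyruvate kinase/LDH to NADH oxidation, followed at A340 for 4 h at 30° C.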

[2] = tested on: M-NFS-60 cells; assay: M-NFS-60 cell proliferation assay (resazurin); assay type: cell-based; conditions: 67 h incubation
In short: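 Cells kept in medium containing 20 ng/mL mouse recombinant M-CSF. Fluorescence was read at ex 540/em 600 nm, and IC50 was fitted from percent inhibition across a range of inhibitor concentrations.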

[3] = tested on: osteoclast precursors; assay: Osteoclast tartrate-resistant acid phosphatase assay; assay type: cell-based; conditions: Osteoclast, 7-14 days, RANKL and M-CSF
[4] = target: c-FMS kinase in THP-1 cells (Homo sapiens (Human), UniProt P07333); assay: Phospho-FMS ELISA assay in THP-1 cells; assay type: cell-based; conditions: 4 h compound, M-CSF stimulation 5 min; read-out: pFMS inhibition in THP-1 cells
Protocol: THP-1 cells (catalog #TIB-202) were obtained from the ATCC. Briefly, cells were grown in RPMI 1640 supplemented with 10% characterized fetal bovine serum, 1% sodium pyruvate, 1% Penicillin-Streptomycin-Glutamine (PSG) and 55 uM 2-mercaptoethanol (Invitrogen, Carlsbad, Calif.) at 37 degrees Celsius, 5% CO2, 95% humidity. Cells were allowed to expand until reaching 70-95% confluency at which point they were subcultured or harvested for assay use.
A serial dilution of test compound was diluted 1:100 in assay medium (RPMI 1640 supplemented with 10% characterized fetal bovine serum) in a 96 well black clear bottom plate (Corning, Corning, N.Y.). In a separate 96 well black clear bottom plate, one hundred and fifty thousand THP-1 cells were added per well in 100 μL in assay medium. Fifty microliters of diluted compound was then added to the cells. Plates were incubated for 4 hours at 37 degrees Celsius, 5% CO2, 95% humidity. At the end of the incubation period, cells were stimulated with 50 μL of a 100 nM solution of recombinant human M-CSF (catalog #216-MC, R & D Systems, Minneapolis, Minn.) in assay medium and the plate was incubated for 5 minutes at 37 degrees Celsius, 5% CO2, 95% humidity. Lysates were prepared and used to perform the phospho-FMS ELISA as described by the manufacturer (catalog #DYC3268, R & D Systems, Minneapolis, Minn.). GraphPad Prism was used to calculate IC50 values obtained from data generated from the ELISA assay.

[5] = target: unphosphorylated c-KIT kinase (uKIT, Seq. ID no. 2) (Homo sapiens (Human), UniProt P10721); assay: uKit kinase assay (coupled pyruvate kinase/lactate dehydrogenase); assay type: biochemical; conditions: enzymatic assay, ATP 2000 μM
In short: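 The read-out was a continuous PK/LDH-coupled decrease in NADH absorbance at 340 nm, monitored at 30 °C over 4 h. IC50 came from % inhibition based on rates at 3–4 h. The GST-tagged unphosphorylated KIT (12 nM) was used with polyE4Y substrate, 2000 μM ATP and 10 mM Mg2+ at pH 7.5, with serially diluted compound.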

[6] = target: unphosphorylated PDGFRβ kinase (uPDGFRβ, Seq. ID No. 3) (Homo sapiens (Human), UniProt P09619); assay: Unphosphorylated PDGFRβ kinase assay (coupled pyruvate kinase/lactate dehydrogenase); assay type: biochemical; conditions: enzymatic assay, ATP 500 μM
Protocol: Unphosphorylated PDGFRβ (uPDGFRβ) Kinase (Seq. ID No. 3) Assay
Activity of unphosphorylated PDGFRβ kinase (uPDGFRβ, Seq. ID No. 3) was determined by following the production of ADP from the kinase reaction with ATP and poly E4Y as substrates through coupling with the pyruvate kinase/lactate dehydrogenase system (e.g., Schindler et al. Science (2000) 289: 1938-1942). In this assay, the oxidation of NADH (thus the decrease at A340 nm) was continuously monitored spectrophometrically. The reaction mixture (100 μL) contained PDGFRβ (DeCode, 15.7 nM), polyE4Y (2.5 mg/mL), MgCl2 (10 mM), pyruvate kinase (4 units), lactate dehydrogenase (0.7 units), phosphoenol pyruvate (1 mM) and NADH (0.28 mM) and ATP (500 μM) in a 90 mM Tris buffer containing 0.2% octyl-glucoside and 1% DMSO, at pH 7.5. The inhibition reaction was started by mixing serial diluted test compound with the above reaction mixture. The absorption at 340 nm was monitored continuously for 4 h at 30° C. on a Polarstar Optima or Synergy 2 plate reader. The reaction rate was calculated using the 1.5 to 2.5 h time frame. Percent inhibition was obtained by comparison of reaction rate with that of a control (i.e., with no test compound). IC50 values were calculated from a series of percent inhibition values determined at a range of inhibitor concentrations using software routines as implemented in the GraphPad Prism software package.
uPDGFRβ Kinase Sequence (Residues 557-1106) Used for Screening (Seq ID No. 3)

c-FMS kinase in THP-1 cells, sequence (P07333 20-972): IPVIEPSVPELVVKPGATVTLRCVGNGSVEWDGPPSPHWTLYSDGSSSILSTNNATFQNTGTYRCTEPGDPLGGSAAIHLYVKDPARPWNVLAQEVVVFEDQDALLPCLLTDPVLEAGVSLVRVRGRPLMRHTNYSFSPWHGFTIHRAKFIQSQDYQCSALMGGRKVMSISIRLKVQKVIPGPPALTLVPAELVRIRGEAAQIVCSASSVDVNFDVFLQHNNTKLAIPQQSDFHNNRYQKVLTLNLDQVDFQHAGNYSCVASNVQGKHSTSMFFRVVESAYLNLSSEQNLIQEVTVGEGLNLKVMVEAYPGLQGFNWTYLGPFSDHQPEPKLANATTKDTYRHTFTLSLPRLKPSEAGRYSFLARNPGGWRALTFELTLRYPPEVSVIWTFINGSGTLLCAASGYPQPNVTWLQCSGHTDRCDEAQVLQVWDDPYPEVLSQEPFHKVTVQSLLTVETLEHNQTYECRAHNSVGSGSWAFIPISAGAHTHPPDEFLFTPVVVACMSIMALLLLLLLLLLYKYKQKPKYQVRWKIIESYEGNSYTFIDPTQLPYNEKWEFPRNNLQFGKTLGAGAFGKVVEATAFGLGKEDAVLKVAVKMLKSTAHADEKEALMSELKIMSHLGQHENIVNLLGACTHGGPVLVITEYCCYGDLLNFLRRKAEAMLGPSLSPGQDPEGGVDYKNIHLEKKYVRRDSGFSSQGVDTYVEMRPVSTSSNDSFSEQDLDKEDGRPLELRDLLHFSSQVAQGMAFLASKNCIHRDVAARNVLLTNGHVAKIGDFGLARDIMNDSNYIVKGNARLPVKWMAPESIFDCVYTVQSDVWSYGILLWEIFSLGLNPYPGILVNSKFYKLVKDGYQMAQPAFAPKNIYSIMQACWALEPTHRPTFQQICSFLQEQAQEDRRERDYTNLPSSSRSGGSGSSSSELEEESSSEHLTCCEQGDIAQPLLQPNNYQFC
unphosphorylated c-FMS kinase (uFMS, Seq. ID no. 1), sequence (P07333 538-972): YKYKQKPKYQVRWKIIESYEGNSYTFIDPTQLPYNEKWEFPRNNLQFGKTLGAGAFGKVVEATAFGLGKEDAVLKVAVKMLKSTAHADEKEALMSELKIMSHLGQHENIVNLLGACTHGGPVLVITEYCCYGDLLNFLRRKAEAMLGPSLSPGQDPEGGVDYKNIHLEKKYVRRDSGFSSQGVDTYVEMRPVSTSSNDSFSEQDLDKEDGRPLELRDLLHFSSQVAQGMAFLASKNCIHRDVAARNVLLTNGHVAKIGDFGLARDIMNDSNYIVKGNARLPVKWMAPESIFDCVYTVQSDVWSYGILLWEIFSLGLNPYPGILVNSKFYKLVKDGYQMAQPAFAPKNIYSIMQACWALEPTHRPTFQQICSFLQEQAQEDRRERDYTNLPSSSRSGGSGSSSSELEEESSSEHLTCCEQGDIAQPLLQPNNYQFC
unphosphorylated PDGFRβ kinase (uPDGFRβ, Seq. ID No. 3), sequence (P09619 557-1106): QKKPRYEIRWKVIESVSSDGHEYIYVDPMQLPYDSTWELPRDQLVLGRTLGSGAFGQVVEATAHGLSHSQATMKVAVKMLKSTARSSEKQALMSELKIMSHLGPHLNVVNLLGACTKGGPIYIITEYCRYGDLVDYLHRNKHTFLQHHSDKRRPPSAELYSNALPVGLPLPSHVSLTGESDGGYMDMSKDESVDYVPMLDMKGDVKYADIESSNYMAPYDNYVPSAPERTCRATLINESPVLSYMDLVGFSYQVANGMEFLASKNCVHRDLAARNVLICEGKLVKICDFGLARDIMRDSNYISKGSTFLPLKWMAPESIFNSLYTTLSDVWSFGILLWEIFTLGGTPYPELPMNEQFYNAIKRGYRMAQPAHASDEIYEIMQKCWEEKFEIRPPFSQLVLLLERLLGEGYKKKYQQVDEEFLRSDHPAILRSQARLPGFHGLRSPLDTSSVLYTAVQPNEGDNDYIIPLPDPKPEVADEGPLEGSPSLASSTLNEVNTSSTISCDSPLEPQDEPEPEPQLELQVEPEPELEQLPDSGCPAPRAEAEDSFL
unphosphorylated c-KIT kinase (uKIT, Seq. ID no. 2), sequence (P10721 other isoform, or with tags, fused parts or gaps): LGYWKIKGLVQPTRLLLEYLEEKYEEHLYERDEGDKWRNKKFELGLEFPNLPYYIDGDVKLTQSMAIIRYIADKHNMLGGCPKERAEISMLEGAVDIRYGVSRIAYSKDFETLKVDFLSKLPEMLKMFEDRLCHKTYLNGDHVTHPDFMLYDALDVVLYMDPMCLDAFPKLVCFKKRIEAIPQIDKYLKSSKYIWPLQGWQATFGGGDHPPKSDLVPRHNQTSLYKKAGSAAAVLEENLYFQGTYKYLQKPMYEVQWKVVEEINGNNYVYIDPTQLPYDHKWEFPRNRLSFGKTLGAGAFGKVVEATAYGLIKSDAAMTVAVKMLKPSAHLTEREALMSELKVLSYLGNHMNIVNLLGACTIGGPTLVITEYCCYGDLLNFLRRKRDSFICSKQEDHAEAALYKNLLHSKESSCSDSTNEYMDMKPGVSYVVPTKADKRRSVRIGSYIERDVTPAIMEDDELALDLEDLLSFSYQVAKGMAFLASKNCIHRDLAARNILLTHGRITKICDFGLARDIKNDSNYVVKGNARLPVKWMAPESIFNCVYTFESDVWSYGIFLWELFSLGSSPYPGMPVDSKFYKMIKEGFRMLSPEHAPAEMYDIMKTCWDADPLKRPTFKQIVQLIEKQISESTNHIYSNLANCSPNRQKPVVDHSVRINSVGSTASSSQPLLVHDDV

Row | IC50 [1] [nM] | IC50 [3] [nM] | IC50 [4] [nM] | IC50 [5] [nM] | IC50 [6] [nM] | SMILES | IC50 [2] [nM]
1 | 10 to 100 | < 10 | – | 10 to 100 | > 1000 | CC(C)N1CCN(C(=O)Nc2ncc(Oc3ccnc(-c4cnn(C)c4)c3)cn2)C1=O [Example 2, 3-isopropyl-N-(5-((2-(1-methyl-1H-pyrazol-4-yl)pyridin-4-yl)oxy)pyrimidin-2-yl)-2-oxoimidazolidine-1-carboxamide] | 10 to 100
2 | 100 to 1000 | 100 to 1000 | – | > 1000 | > 1000 | Cn1cc(-c2cc(Oc3ccc(NC(=O)N4CCN(CC#N)C4=O)nc3)ccn2)cn1 [Example 55, 3-(cyanomethyl)-N-(5-((2-(1-methyl-1H-pyrazol-4-yl)pyridin-4-yl)oxy)pyridin-2-yl)-2-oxoimidazolidine-1-carboxamide] | 100 to 1000
3 | < 10 | < 10 | – | 100 to 1000 | > 1000 | Cc1nc(NC(=O)N2CCN(C3CC3)C2=O)ccc1Oc1ccnc(-c2cnn(C)c2)c1 [Example 47, 3-cyclopropyl-N-(6-methyl-5-((2-(1-methyl-1H-pyrazol-4-yl)pyridin-4-yl)oxy)pyridin-2-yl)-2-oxoimidazolidine-1-carboxamide] | 10 to 100
4 | < 10 | < 10 | – | < 10 | 100 to 1000 | Cn1cc(-c2cc(Oc3ccc(NC(=O)N4CCN(C5CCCC5)C4=O)nc3)ccn2)cn1 [Example 30, 3-cyclopentyl-N-(5-((2-(1-methyl-1H-pyrazol-4-yl)pyridin-4-yl)oxy)pyridin-2-yl)-2-oxoimidazolidine-1-carboxamide] | < 10
5 | 100 to 1000 | 10 to 100 | – | 100 to 1000 | > 1000 | CCN1CCN(C(=O)Nc2ccc(Oc3ccnc(C(=O)NC)c3)cn2)C1=O [Example 115, 4-((6-(3-ethyl-2-oxoimidazolidine-1-carboxamido)pyridin-3-yl)oxy)-N-methylpicolinamide] | > 1000
6 | < 10 | < 10 | – | < 10 | 100 to 1000 | Cn1cc(-c2cc(Oc3ccc(NC(=O)N4CCN(CC(F)(F)F)C4=O)nc3)ccn2)cn1 [Example 48, N-(5-((2-(1-methyl-1H-pyrazol-4-yl)pyridin-4-yl)oxy)pyridin-2-yl)-2-oxo-3-(2,2,2-trifluoroethyl)imidazolidine-1-carboxamide] | 10 to 100
7 | 10 to 100 | 10 to 100 | – | 10 to 100 | > 1000 | Cn1cnc(-c2cc(Oc3ccc(NC(=O)N4CCN(CC(F)(F)F)C4=O)nc3)ccn2)c1 [Example 84, N-(5-((2-(1-methyl-1H-imidazol-4-yl)pyridin-4-yl)oxy)pyridin-2-yl)-2-oxo-3-(2,2,2-trifluoroethyl)imidazolidine-1-carboxamide] | 10 to 100
8 | < 10 | < 10 | – | 10 to 100 | 100 to 1000 | COC[C@@H](C)N1CCN(C(=O)Nc2ccc(Oc3ccnc(-c4cnn(C)c4)c3)cn2)C1=O [Example 59, (R)-3-(1-methoxypropan-2-yl)-N-(5-((2-(1-methyl-1H-pyrazol-4-yl)pyridin-4-yl)oxy)pyridin-2-yl)-2-oxoimidazolidine-1-carboxamide] | < 10

Further lines, the molecule ahead of its results:

Row | SMILES | IC50 [1] [nM] | IC50 [3] [nM] | IC50 [4] [nM] | IC50 [5] [nM] | IC50 [6] [nM] | IC50 [2] [nM]
9 | O=C(Nc1cc(Cl)c(Oc2ccnc(-c3cn[nH]c3)c2)cc1F)N1CCN(C2CCOCC2)C1=O [Example 94, N-(4-((2-(1H-pyrazol-4-yl)pyridin-4-yl)oxy)-5-chloro-2-fluorophenyl)-2-oxo-3-(tetrahydro-2H-pyran-4-yl)imidazolidine-1-carboxamide] | 10 to 100 | 100 to 1000 | 10 to 100 | – | – | 100 to 1000
10 | CC(=O)Nc1cc(Oc2cc(F)c(NC(=O)N3CCN(C4CCOCC4)C3=O)cc2Cl)ccn1 [Example 97, N-(4-((2-acetamidopyridin-4-yl)oxy)-5-chloro-2-fluorophenyl)-2-oxo-3-(tetrahydro-2H-pyran-4-yl)imidazolidine-1-carboxamide] | 10 to 100 | 100 to 1000 | 100 to 1000 | – | – | 100 to 1000
11 | Cc1nc(NC(=O)N2CCN(C3CCOCC3)C2=O)ccc1Oc1ccnc(-c2cn[nH]c2)c1 [Example 9, N-(5-((2-(1H-pyrazol-4-yl)pyridin-4-yl)oxy)-6-methylpyridin-2-yl)-2-oxo-3-(tetrahydro-2H-pyran-4-yl)imidazolidine-1-carboxamide] | 10 to 100 | 10 to 100 | 10 to 100 | – | – | 100 to 1000
12 | Cc1cc(NC(=O)N2CCN(C3CCCC3)C2=O)nc(C)c1Oc1ccnc(-c2cnn(C)c2)c1 [Example 72, 3-cyclopentyl-N-(4,6-dimethyl-5-((2-(1-methyl-1H-pyrazol-4-yl)pyridin-4-yl)oxy)pyridin-2-yl)-2-oxoimidazolidine-1-carboxamide] | < 10 | < 10 | – | < 10 | 10 to 100 | < 10
13 | Cn1cnc(-c2cc(Oc3ccc(NC(=O)N4CCN(C5CCOCC5)C4=O)nc3)ccn2)c1 [Example 83, N-(5-((2-(1-methyl-1H-imidazol-4-yl)pyridin-4-yl)oxy)pyridin-2-yl)-2-oxo-3-(tetrahydro-2H-pyran-4-yl)imidazolidine-1-carboxamide] | 10 to 100 | 10 to 100 | – | 10 to 100 | 100 to 1000 | 10 to 100
14 | Cc1cc(-c2cc(Oc3ccc(NC(=O)N4CCN(C5CCOCC5)C4=O)nc3)ccn2)ccn1 [Example 51, N-(5-((2′-methyl-[2,4′-bipyridin]-4-yl)oxy)pyridin-2-yl)-2-oxo-3-(tetrahydro-2H-pyran-4-yl)imidazolidine-1-carboxamide] | 10 to 100 | 100 to 1000 | – | 10 to 100 | > 1000 | 10 to 100
15 | CC(=O)Nc1cc(Oc2ccc(NC(=O)N3CCN(C4CCOCC4)C3=O)nc2C)ccn1 [Example 121, N-(5-((2-acetamidopyridin-4-yl)oxy)-6-methylpyridin-2-yl)-2-oxo-3-(tetrahydro-2H-pyran-4-yl)imidazolidine-1-carboxamide] | 10 to 100 | 100 to 1000 | – | 100 to 1000 | 100 to 1000 | 100 to 1000
16 | Cc1ccc(-c2cc(Oc3ccc(NC(=O)N4CCN(CC(F)(F)F)C4=O)nc3C)ccn2)cn1 [Example 53, N-(6-methyl-5-((6′-methyl-[2,3′-bipyridin]-4-yl)oxy)pyridin-2-yl)-2-oxo-3-(2,2,2-trifluoroethyl)imidazolidine-1-carboxamide] | 10 to 100 | 100 to 1000 | – | > 1000 | > 1000 | 10 to 100
